The values below come from paper PMC4222501, “Synthetic organotelluride compounds induce the reversal of Pdr5p mediated fluconazole resistance in Saccharomyces cerevisiae” (BMC Microbiology, 2014).

The target of this assay is T1, Pdr5p (Saccharomyces cerevisiae, UniProt P33302).
T1 construct: gene PDR5; Pdr5p-enriched plasma membranes from strain AD124567
T1 sequence (P33302 whole entry): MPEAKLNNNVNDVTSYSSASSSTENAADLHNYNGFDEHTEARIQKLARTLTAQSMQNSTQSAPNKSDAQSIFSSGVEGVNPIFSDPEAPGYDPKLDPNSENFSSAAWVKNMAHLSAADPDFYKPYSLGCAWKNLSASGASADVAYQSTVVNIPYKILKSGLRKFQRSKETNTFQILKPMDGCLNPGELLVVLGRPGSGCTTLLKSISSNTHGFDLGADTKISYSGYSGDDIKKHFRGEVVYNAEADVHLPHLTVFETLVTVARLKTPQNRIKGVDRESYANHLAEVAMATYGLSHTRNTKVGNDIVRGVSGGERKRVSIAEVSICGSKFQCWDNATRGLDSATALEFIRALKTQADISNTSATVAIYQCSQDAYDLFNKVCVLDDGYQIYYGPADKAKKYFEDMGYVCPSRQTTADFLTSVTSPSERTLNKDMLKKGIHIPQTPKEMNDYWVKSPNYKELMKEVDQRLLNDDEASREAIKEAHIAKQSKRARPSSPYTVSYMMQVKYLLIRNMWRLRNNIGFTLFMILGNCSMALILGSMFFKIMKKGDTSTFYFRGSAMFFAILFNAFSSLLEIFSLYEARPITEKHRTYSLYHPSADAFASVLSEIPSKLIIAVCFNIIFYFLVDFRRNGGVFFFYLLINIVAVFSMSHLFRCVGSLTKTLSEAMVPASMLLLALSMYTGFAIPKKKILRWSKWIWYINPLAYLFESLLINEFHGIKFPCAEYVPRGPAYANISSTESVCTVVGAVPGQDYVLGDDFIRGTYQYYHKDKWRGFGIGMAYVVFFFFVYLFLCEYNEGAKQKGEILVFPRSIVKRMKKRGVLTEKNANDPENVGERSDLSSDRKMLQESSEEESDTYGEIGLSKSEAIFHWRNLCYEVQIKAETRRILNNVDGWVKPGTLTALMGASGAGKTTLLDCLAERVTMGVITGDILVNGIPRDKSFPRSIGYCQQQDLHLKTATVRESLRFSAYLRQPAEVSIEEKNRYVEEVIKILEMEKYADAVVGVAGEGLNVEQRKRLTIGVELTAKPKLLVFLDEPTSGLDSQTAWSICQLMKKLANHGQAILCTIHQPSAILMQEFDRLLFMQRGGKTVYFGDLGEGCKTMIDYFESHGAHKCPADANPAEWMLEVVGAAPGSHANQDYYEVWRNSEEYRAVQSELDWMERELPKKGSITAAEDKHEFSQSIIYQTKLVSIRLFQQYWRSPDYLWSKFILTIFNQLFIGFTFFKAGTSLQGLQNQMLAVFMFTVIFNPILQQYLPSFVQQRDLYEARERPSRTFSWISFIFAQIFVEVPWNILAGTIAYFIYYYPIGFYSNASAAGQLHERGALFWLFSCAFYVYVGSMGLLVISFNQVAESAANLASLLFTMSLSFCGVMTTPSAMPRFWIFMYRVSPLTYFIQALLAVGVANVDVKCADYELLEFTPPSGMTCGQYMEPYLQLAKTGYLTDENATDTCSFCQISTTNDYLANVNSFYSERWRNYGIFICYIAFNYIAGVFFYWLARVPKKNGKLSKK
As to the kind of experiment: ATPase activity (Pi release) in Pdr5p-enriched plasma membranes, Pdr5p-null membranes subtracted. Type of assay: biochemical.
Regarding `CCCC[Te]CCCNC(=O)OC(C)(C)C` [compound 1], inhibition was half-maximal at 1.14 ± 0.21 µM (IC50).

The molecule `CCCC[Te]CCCNC(=O)c1ccccc1` [compound 2] returned an IC50 of 1.45 ± 0.49 µM.

`CCCC[Te]CCCCNC(=O)c1ccccc1` [compound 3]: half-maximal inhibition (IC50) was put at 1.74 ± 0.91 µM.

As for `CCCC[Te]CCCCCNC(=O)c1ccccc1` [compound 5], the IC50 was 1.48 ± 0.32 µM.
